Consider five molecules from ChEMBL document CHEMBL1125622 (J Med Chem, 1991).

The target of data set [1] is T1, Dopamine beta-hydroxylase (Bos taurus) (UniProt P15101).
T1 sequence (whole entry): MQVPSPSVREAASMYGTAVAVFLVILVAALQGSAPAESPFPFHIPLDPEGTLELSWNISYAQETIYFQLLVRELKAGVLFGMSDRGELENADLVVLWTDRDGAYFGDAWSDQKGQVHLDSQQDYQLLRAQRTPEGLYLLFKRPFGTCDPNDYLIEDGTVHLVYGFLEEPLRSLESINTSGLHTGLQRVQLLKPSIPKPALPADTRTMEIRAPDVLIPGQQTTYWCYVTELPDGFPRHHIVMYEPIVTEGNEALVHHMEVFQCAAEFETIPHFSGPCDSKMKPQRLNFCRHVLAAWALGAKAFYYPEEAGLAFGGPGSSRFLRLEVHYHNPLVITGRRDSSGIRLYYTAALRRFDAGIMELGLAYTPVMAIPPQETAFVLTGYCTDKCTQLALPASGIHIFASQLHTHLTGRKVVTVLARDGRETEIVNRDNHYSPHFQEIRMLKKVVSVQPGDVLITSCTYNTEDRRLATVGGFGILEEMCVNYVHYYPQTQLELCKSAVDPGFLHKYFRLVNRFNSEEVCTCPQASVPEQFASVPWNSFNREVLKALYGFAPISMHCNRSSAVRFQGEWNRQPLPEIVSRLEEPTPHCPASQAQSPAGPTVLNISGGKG
Description: Kcat/Km value of the compound. Details: unit not given here.

Data set [2] concerns the target T1, Dopamine beta-hydroxylase (Bos taurus). Description: Kinetic parameter kcat was measured for dopamine beta-monooxygenase.
A further data set is filed under the species Rattus norvegicus. The data set is described as follows: The ability to inhibit dopamine uptake was measured in rat brain striatal synaptosomes. Type of data set: functional.
Substrate in data set [3]: C[C@@H](N)CSc1ccccc1
Description: (§1) Kinetic parameter Km was measured for dopamine beta-monooxygenase.

Substrate in data set [4]: C[C@H](N)CSc1ccccc1
Described as §1.

For orientation: IC50 means the concentration needed to halve the response being measured. Regarding `C[C@H](N)CSc1ccccc1`, in data set [1], the Ratio is 4800. For the same molecule, the k cat in data set [2] was 37 s⁻¹. Further, 6.5 µM corresponded to half-maximal inhibition in the data set listed under Rattus norvegicus (IC50).

As for `NCCc1ccc(O)cc1`, the Ratio in data set [1] amounted to 60000. Also, the k cat in data set [2] amounted to 121 s⁻¹.

As for `C[C@@H](N)CSc1ccccc1`, in data set [1], the Ratio amounted to 700. In addition, the k cat in data set [2] was 13 s⁻¹.

In the case of `NCCCc1ccccc1`, in data set [1], the Ratio came to 800. This molecule also registered a k cat in data set [2] of 17 s⁻¹.

B1: Dopamine beta-hydroxylase (Bos taurus), P15101 (protein)
chain: MQVPSPSVREAASMYGTAVAVFLVILVAALQGSAPAESPFPFHIPLDPEGTLELSWNISYAQETIYFQLLVRELKAGVLFGMSDRGELENADLVVLWTDRDGAYFGDAWSDQKGQVHLDSQQDYQLLRAQRTPEGLYLLFKRPFGTCDPNDYLIEDGTVHLVYGFLEEPLRSLESINTSGLHTGLQRVQLLKPSIPKPALPADTRTMEIRAPDVLIPGQQTTYWCYVTELPDGFPRHHIVMYEPIVTEGNEALVHHMEVFQCAAEFETIPHFSGPCDSKMKPQRLNFCRHVLAAWALGAKAFYYPEEAGLAFGGPGSSRFLRLEVHYHNPLVITGRRDSSGIRLYYTAALRRFDAGIMELGLAYTPVMAIPPQETAFVLTGYCTDKCTQLALPASGIHIFASQLHTHLTGRKVVTVLARDGRETEIVNRDNHYSPHFQEIRMLKKVVSVQPGDVLITSCTYNTEDRRLATVGGFGILEEMCVNYVHYYPQTQLELCKSAVDPGFLHKYFRLVNRFNSEEVCTCPQASVPEQFASVPWNSFNREVLKALYGFAPISMHCNRSSAVRFQGEWNRQPLPEIVSRLEEPTPHCPASQAQSPAGPTVLNISGGKG
As a reminder, the Km is the substrate concentration at which the rate is half of its maximum. As for B1, the Michaelis-Menten constant (Km) worked out at 19 mM in data set [3] and 7.7 mM in data set [4].
